Among the test systems are UO-31 renal; SF-295 CNS; 786-0 renal; SR leukemia; COLO 205 colon; SK-MEL-5 melanoma; SNB-19 CNS; UACC-62 melanoma; HL-60(TB) leukemia; NCI-H522 lung; MDA-N.
Assay in all cases: NCI anticancer screen, dose series, 48 h

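Following 48 hours of exposure in 96-well plates, responses at five concentrations were used to interpolate endpoints linearly. At the GI50, growth is halved. Definition used: TGI = concentration required for complete inhibition of growth.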

For `CC1(c2ccc[n+](Cc3ccccc3)c2)OCCO1`, the TGI in the assay with UO-31 renal, in the assay on SF-295 CNS, with 786-0 renal, with SR leukemia, in the assay on COLO 205 colon and in the assay on SK-MEL-5 melanoma was more than 100 µM in each case. The TGI in the assay with SNB-19 CNS, with UACC-62 melanoma, in the assay on HL-60(TB) leukemia and in the assay with NCI-H522 lung was more than 100 µM each time.
In the case of `CCNC(=O)c1cc(/C=C/c2ccc([N+](=O)[O-])o2)nc2ccccc12`, the TGI was more than 100 µM in the assay on UO-31 renal; more than 100 µM in the assay on SF-295 CNS; more than 100 µM in the assay on 786-0 renal; more than 100 µM with SR leukemia; more than 84.2 µM in the assay with COLO 205 colon; 4.1 µM with SK-MEL-5 melanoma. The TGI was more than 100 µM in the assay with SNB-19 CNS, more than 100 µM in the assay on UACC-62 melanoma, more than 100 µM in the assay on HL-60(TB) leukemia and more than 49 µM in the assay on NCI-H522 lung.
Take `C[C@@H]1CC[C@H]2C(C(O)CCCCC(O)C3=C(C(F)(F)F)O[C@@H]4O[C@@]5(C)CC[C@H]6[C@H](C)CC[C@@H]3[C@@]46OO5)=C(C(F)(F)F)O[C@@H]3O[C@@]4(C)CC[C@@H]1[C@]32OO4` (stereo partly specified): the GI50 in the assay on UO-31 renal is 10.2 µM; in the assay on SF-295 CNS, 53.7 µM; in the assay on SR leukemia it was 1.91 µM; in the assay on COLO 205 colon it was 8.04 µM; in the assay on SK-MEL-5 melanoma it was 24.7 µM; in the assay on SNB-19 CNS it was more than 100 µM. For the same compound, the GI50 was 8.13 µM with UACC-62 melanoma, 6.44 µM in the assay with HL-60(TB) leukemia and 26.6 µM in the assay on NCI-H522 lung. Moreover, the TGI in the assay with UO-31 renal was more than 100 µM; with SF-295 CNS, more than 100 µM; in the assay with SR leukemia, 6.04 µM; in the assay with COLO 205 colon, 29.4 µM; with SK-MEL-5 melanoma, more than 100 µM; in the assay on SNB-19 CNS, more than 100 µM. In addition, the TGI in the assay on UACC-62 melanoma, in the assay with HL-60(TB) leukemia and in the assay on NCI-H522 lung was more than 100 µM each time.
`CC(C)(Oc1ccc(Cl)cc1)C(=O)N(C(=O)N1CCC(c2ccccc2)CC1)c1ccccc1`: the TGI with UO-31 renal was more than 100 µM; in the assay with SF-295 CNS it was more than 100 µM; with 786-0 renal, more than 100 µM; in the assay with SR leukemia, more than 100 µM; in the assay on COLO 205 colon it was more than 62.5 µM; in the assay on SK-MEL-5 melanoma it was 65.8 µM. Besides, the TGI is more than 100 µM with SNB-19 CNS, more than 100 µM with UACC-62 melanoma and 29 µM with HL-60(TB) leukemia.
Regarding `Cc1cc(N2CCCC2)nc(N(CCNc2ccnc3cc(Cl)ccc23)Cc2ccco2)n1`, the GI50 was 2.58 µM with UO-31 renal; 2.07 µM with SF-295 CNS; 1.8 µM in the assay on SR leukemia; 1.8 µM with COLO 205 colon; 1.78 µM with SK-MEL-5 melanoma; 5.67 µM with SNB-19 CNS. Moreover, the GI50 was 4.11 µM with UACC-62 melanoma and 3.59 µM with NCI-H522 lung. Further, the TGI in the assay with UO-31 renal stood at 39.8 µM; in the assay on SF-295 CNS, 16.1 µM; in the assay on SR leukemia it was 4.67 µM; in the assay with COLO 205 colon, 4.38 µM; with SK-MEL-5 melanoma it was 3.28 µM; in the assay with SNB-19 CNS, 70.2 µM. The figures for the TGI in the assay with UACC-62 melanoma and in the assay on NCI-H522 lung were 78.2 µM and more than 100 µM, respectively.
As for `OC(CCNCc1ccccc1)c1ccc2ccccc2c1` (stereo unspecified), the TGI in the assay on UO-31 renal worked out at 32.3 µM; in the assay with SF-295 CNS it was 63.9 µM; in the assay with 786-0 renal it was 35.9 µM; with SR leukemia, 98.3 µM; in the assay with COLO 205 colon, 47.2 µM; in the assay with SK-MEL-5 melanoma it was 32.4 µM. For the same compound, the TGI with SNB-19 CNS was 47.9 µM; in the assay with UACC-62 melanoma, 35.8 µM; with HL-60(TB) leukemia it was 43.2 µM; in the assay on NCI-H522 lung, 35 µM.
Take `CCOC(=O)c1nc2ccc(C(F)(F)F)cc2nc1Oc1cc(OC)cc(OC)c1`: the TGI is more than 100 µM in the assay on UO-31 renal; more than 100 µM with SF-295 CNS; more than 100 µM in the assay on 786-0 renal; more than 100 µM in the assay with COLO 205 colon; 79.1 µM in the assay with SK-MEL-5 melanoma; more than 100 µM in the assay with MDA-N. The TGI with SNB-19 CNS, in the assay with UACC-62 melanoma and in the assay on HL-60(TB) leukemia was more than 100 µM each time.
Consider `NNC(=O)Cn1c2ccc(Br)cc2c2nc3ccccc3nc21`, for which the TGI with UO-31 renal, in the assay with SF-295 CNS, with 786-0 renal, in the assay with SR leukemia, in the assay on COLO 205 colon and in the assay with SK-MEL-5 melanoma was more than 100 µM in each case. In addition, the TGI with MDA-N, in the assay with SNB-19 CNS and in the assay on UACC-62 melanoma was more than 100 µM throughout.
As for `CCOC(=O)C(NC(=O)CC)(Nc1cc(C)on1)C(F)(F)F` (stereo unspecified), the TGI with UO-31 renal, in the assay on 786-0 renal, with SR leukemia, with COLO 205 colon, in the assay with SK-MEL-5 melanoma and in the assay on MDA-N was more than 100 µM each time. The TGI with SNB-19 CNS and in the assay on HL-60(TB) leukemia was more than 100 µM throughout.
With `C(CCCCc1nnc(N2CCCCC2)o1)CCCc1nnc(N2CCCCC2)o1`, the TGI in the assay on UO-31 renal, with SF-295 CNS, in the assay with 786-0 renal, in the assay with COLO 205 colon, with SK-MEL-5 melanoma and in the assay with SNB-19 CNS was more than 100 µM in each case. Besides, the TGI in the assay with HL-60(TB) leukemia and with NCI-H522 lung was more than 100 µM each time.
In the case of `COc1cc(C(C)c2cc3c(cc2OCCO)OCO3)cc(OC)c1OC` (stereo unspecified), the TGI in the assay on UO-31 renal is more than 100 µM; in the assay with SF-295 CNS, 2.24 µM; in the assay on SR leukemia it was 0.932 µM; in the assay with COLO 205 colon, 7.47 µM; in the assay on SK-MEL-5 melanoma, more than 100 µM; in the assay with SNB-19 CNS, more than 100 µM. Further, the TGI with UACC-62 melanoma was more than 100 µM; with HL-60(TB) leukemia, 2.02 µM; in the assay with NCI-H522 lung, 2.93 µM.
Take `N#Cc1ccccc1-c1nc2c3c(c(N)ccc3n1)C(=O)c1ccccc1-2`: the TGI in the assay with UO-31 renal is more than 100 µM; in the assay on SF-295 CNS, more than 100 µM; in the assay on 786-0 renal it was more than 100 µM; with COLO 205 colon it was more than 100 µM; in the assay on SK-MEL-5 melanoma, 74.5 µM; in the assay on MDA-N, more than 100 µM. For the same compound, the TGI with SNB-19 CNS, in the assay on UACC-62 melanoma, in the assay with HL-60(TB) leukemia and with NCI-H522 lung was more than 100 µM each time.
